Data as given in publication PMC10425210 (The Journal of Clinical Investigation, 2023).
Several values for one entry are separate records, joined by “and”; a condition that tells them apart may be missing. Identical values can stand only once. Like-named read-outs stand apart in the source and are kept apart here.

How the values were obtained:
HIV-1 [1] = assay: Antiviral assay in human PBMCs infected with HIV-1 clinical isolates; type: cell-based; conditions: HIV-1, human PBMCs; EC95 x human plasma shift
HIV-1 [2] = assay: Antiviral assay against HIV-1 in MT-4 cells; type: cell-based; conditions: HIV-1IIIb in MT-4 cells
HIV-1 [3] = tested on: HIV-1; set-up: method as in ref 11 = [11]; PMID 32612233; doi:10.1038/s41586-020-2443-1; 11 Link JO et al Clinical targeting of HIV capsid protein with a long-acting small molecule Nature 2020 584 7822 614 618 10.1038/s41586-020-2443-1 32612233 PMC8188729; conditions: cited from earlier work
HIV-1 [4] = tested on: HIV-1; set-up: method as in ref 11, 12 = [11]; PMID 32612233; doi:10.1038/s41586-020-2443-1; 11 Link JO et al Clinical targeting of HIV capsid protein with a long-acting small molecule Nature 2020 584 7822 614 618 10.1038/s41586-020-2443-1 32612233 PMC8188729 || [12]; 12 Yant SR, et al. GS-6207, A potent and selective first-in-class long-acting HIV-1 capsid inhibitor. Conference on Retroviruses and Opportunistic Infections. https://www.croiconference.org/abstract/g; conditions: HIV-1 in MT-4 cells; cited from earlier work
[5] = cited from earlier work
[6] = through week 52 of treatment across clinical studies; cited from earlier work
[7] = 927 mg sc twice-yearly after 600 mg oral on days 1 and 2

CC(C)(C#Cc1ccc(-c2ccc(Cl)c3c(NS(C)(=O)=O)nn(CC(F)(F)F)c23)c([C@H](Cc2cc(F)cc(F)c2)NC(=O)Cn2nc(C(F)(F)F)c3c2C(F)(F)[C@@H]2C[C@H]32)n1)S(C)(=O)=O [LEN, Lenacapavir]
paEC95 (protein-adjusted EC95) (HIV-1 [1]): 2.01 nM and 2.01 ± 1.22 nM
Hill coefficient (n) (HIV-1 [2]): 3.51 ± 0.31
EC50 (HIV-1 [3]; 23 HIV-1 clinical isolates, mitogen-activated human PBMCs, 7-day assay): 0.05 ± 0.03 nM
EC95 (HIV-1 [3]; 23 HIV-1 isolates, human PBMCs): 0.12 nM and 0.12 ± 0.07 nM
EC50 (HIV-1 [4]): 0.1 nM
time to reach efficacious target concentration after injection ([5]; 927 mg sc after oral lead-in): ≤ 2 h
efficacious target plasma concentration [5, 7]: 15.5 ng/mL
efficacious target plasma concentration (human target Ctrough) [5, 7]: 16 nM
serious adverse events or laboratory abnormalities [6]: no serious adverse events or laboratory abnormalities related to LEN
